Experimental findings from US4965266A, “Heteroarylcarboxamide derivatives, process for preparing the same and pharmaceutical composition containing the same” (Dainippon Pharmaceutical Co., Ltd., priority 1987, dated 1990) are described below.

Structures are written as SMILES. Where a name gives a salt, the structure may show the parent alone.

For one data set, the target named is T1, 5-lipoxygenase (Cavia porcellus, UniProt A0A286X958).
T1 construct: A cytosol fraction of peritoneal exudate cell from male Hartley guinea pig (weighing 400 to 700 g) was used as 5-lipoxygenase; endogenous in cells; host or cells: cytosol fraction of peritoneal exudate cells from male Hartley guinea pig
T1 sequence (A0A286X958 1-674): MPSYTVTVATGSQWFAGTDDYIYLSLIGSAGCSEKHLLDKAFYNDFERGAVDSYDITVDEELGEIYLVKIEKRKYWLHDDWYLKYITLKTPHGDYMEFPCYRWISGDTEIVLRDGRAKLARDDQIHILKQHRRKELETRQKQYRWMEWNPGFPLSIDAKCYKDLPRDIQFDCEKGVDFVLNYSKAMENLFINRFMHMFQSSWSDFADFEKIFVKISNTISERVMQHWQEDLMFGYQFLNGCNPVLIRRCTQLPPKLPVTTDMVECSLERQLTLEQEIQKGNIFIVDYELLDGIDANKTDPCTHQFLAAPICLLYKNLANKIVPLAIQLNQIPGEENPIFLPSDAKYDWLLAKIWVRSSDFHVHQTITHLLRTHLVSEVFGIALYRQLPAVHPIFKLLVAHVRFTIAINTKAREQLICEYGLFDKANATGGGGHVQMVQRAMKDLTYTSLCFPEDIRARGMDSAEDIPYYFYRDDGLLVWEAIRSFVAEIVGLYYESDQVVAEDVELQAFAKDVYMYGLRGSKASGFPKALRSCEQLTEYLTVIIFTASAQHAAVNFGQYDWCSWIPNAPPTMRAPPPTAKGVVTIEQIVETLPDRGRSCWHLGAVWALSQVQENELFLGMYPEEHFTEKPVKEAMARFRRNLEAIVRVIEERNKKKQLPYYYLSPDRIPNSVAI
The data set can be described thus: Inhibitory effect on 5-lipoxygenase activity (antiallergic activity in vitro). It is filed as biochemical, guinea pig (male Hartley). The note with it: for inhibition at 10 µM: 10^-5 M test compound, guinea pig peritoneal exudate cell cytosol, mean of 3 to 6 experiments. The procedure:
This experiment was carried out by the method of Miyamoto and Obata ["Perspectives in Prostaglandin Research", ed. by Y. Shiokawa et al., Excerpta Medica, Amsterdam-Oxford-Princeton, 1983, p.78] with minor modifications.
A cytosol fraction of peritoneal exudate cell from male Hartley guinea pig (weighing 400 to 700 g) was used as 5-lipoxygenase. As a standard reaction solution, a mixture of 50 mM potassium phosphate buffer (pH 7.4), 1 mM calcium chloride, 1 mM glutathione, 1 mM adenosine triphosphate, 10 μM indomethacin and the enzyme was used. To the reaction solution was added 0.02 μCi of [1-^14 C] arachidonic acid and the mixture was incubated at 30° C. for 5 minutes, followed by adding 0.6 ml of a cold solution comprising diethyl ether methanol -0.2 M citric acid (30 : 4 : 1) to terminate the reaction. The organic layer (300 μ1) was subjected to a thin layer chromatography plate on silica gel 60 F254 (E. Merck, West Germany) and, after developing, a radioactivity was measured by means of radiochromatogram scanner (Packard, U.S.A.) 5-Lipoxygenase activity was calculated by the following equation. [formula]
The results are shown in Table 1 in terms of mean value of 3 to 6 experiments.

The test system of data set [1] is passive cutaneous anaphylaxis (PCA). The data set can be described thus: Inhibitory effect on passive cutaneous anaphylaxis (PCA) (antiallergic activity in vivo). Also noted: species or system rat (male Wistar). The note with it: 20 mg/kg oral, 1 hour prior to dye injection; rats; vs control group. The procedure:
Male Wistar rats (weighing 130 to 190 g) were injected with a dilute solution (0.1 ml) of mouse antiserum to egg albumin, which was prepared by the method of Levine et al. [Int. Arch. Allergy Appl. […] Forty-eight hours later, 0.5% Evan's blue solution (1 ml) containing 2 mg of egg albumin was intravenously injected to tail vein of the animal. Thirty minutes after the dye injection, abdominal skin was peeled off and the area of the blueing lesions was measured. In each rat, a mean value of the two lesions was regarded as the response of the rat. The test compounds in a dose of 20 mg/kg, dissolved or suspended in a 0.5% aqueous tragacanth solution, were orally administered 1 hour prior to the dye injection.

The next data set concerns ddY mice. The data set can be described thus: Acute toxicity. It is filed as in vivo. The note with it: 1000 mg/kg oral; male ddY mice, 7 days observation. The text has this:
Five male ddY mice weighing 25 to 29 g were used in each group.

`Cc1ccc2c(O)c(C(=O)NCCCCN3CCC(=C(c4ccccc4)c4ccccc4)CC3)cnc2n1` [Example 1, N-[4-(4-diphenylmethylene-1-piperidyl)butyl]-4-hydroxy-7-methyl-1,8-naphthyridine-3-carboxamide.cndot.1/4 hydrate] gave an inhibition at 10 µM against 5-lipoxygenase of 96.8%. The “PCA inhibition (%)” value in data set [1] amounted to 88.3%. In addition, the “death of the animals” value in the data set on ddY mice was “no death was observed”.

The molecule `Cc1ccc2c(O)c(C(=O)NCCCCN3CCN(C(c4ccccc4)c4ccccc4)CC3)cnc2n1` [Example 2, N-[4-(4-diphenylmethyl-1-piperazinyl)butyl]-4-hydroxy-7-methyl-1,8-naphthyridine-3-carboxamide.cndot.1/2 hydrate] returned an inhibition at 10 µM on 5-lipoxygenase of 79.6%. In addition, the “PCA inhibition (%)” value in data set [1] came out at 80.7%.

As for `COc1cccc2c(O)c(C(=O)NCCCCN3CCN(C(c4ccccc4)c4ccccc4)CC3)cnc12` [Example 3, N-[4-(4-diphenylmethyl-1-piperazinyl)butyl]-4-hydroxy-8-methoxyquinoline-3-carboxamide], on 5-lipoxygenase, the inhibition at 10 µM came to 91.3%. In addition, the “PCA inhibition (%)” value in data set [1] is on record as 56.0%. Besides, in the data set with ddY mice, the “death of the animals” value was “no death was observed”.

In turn, `O=C(NCCCCN1CCN(C(c2ccccc2)c2ccccc2)CC1)c1cnc2cccc(O)c2c1O` [Example 4, N-[4-(4-diphenylmethyl-1-piperazinyl)butyl]-4,5-dihydroxyquinoline-3-carboxamide] showed an inhibition at 10 µM against 5-lipoxygenase of 95.4%.

As for `COc1c(C(=O)NCCCCN2CCN(C(c3ccccc3)c3ccccc3)CC2)cnc2ccccc12` [Example 5, N-[4-(4-diphenylmethyl-1-piperazinyl)butyl]-4-methoxyquinoline-3-carboxamide.cndot.1/4 hydrate], the inhibition at 10 µM against 5-lipoxygenase is 80.3%.

Consider `CC(C)c1ccc(C(=O)NCCCCN2CCN(C(c3ccccc3)c3ccccc3)CC2)c(O)n1` [Example 6, N-[4-(4-diphenylmethyl-1-piperazinyl)butyl]-2-hydroxy-6-isopropylpyridine-3carboxamide], for which the inhibition at 10 µM against 5-lipoxygenase is 75.1%. In addition, the “PCA inhibition (%)” value in data set [1] is recorded as 93.0%. Besides, the “death of the animals” value with ddY mice was “no death was observed”.

Consider `N#Cc1cccc2ncc(C(=O)NCCCCN3CCN(C(c4ccccc4)c4ccccc4)CC3)c(O)c12` [Example 7 (5cyano compound), N-[4-(4-diphenylmethyl-1-piperazinyl)butyl]-5-cyano-4-hydroxyquinoline-3-carboxamide], for which the inhibition at 10 µM on 5-lipoxygenase turned out to be 92.1%.

With `N#Cc1ccc2c(O)c(C(=O)NCCCCN3CCN(C(c4ccccc4)c4ccccc4)CC3)cnc2c1` [Example 7 (7cyano compound), N-[4-(4-diphenylmethyl-1-piperazinyl)butyl]-7-cyano-4-hydroxyquinoline-3-carboxamide], on 5-lipoxygenase, the inhibition at 10 µM worked out at 84.7%.

For `COc1cccc2c(O)c(C(=O)NCCCCN3CCC(=C(c4ccccc4)c4ccccc4)CC3)cnc12` [Example 8, N-[4-(4-diphenylmethylene-1piperidyl)butyl]-4-hydroxy-8-methoxyquinoline-3-carboxamide.cndot.fumarate], on 5-lipoxygenase, 10 µM produced 93.3% inhibition.

`Cc1ccc2c(S)c(C(=O)NCCCCN3CCN(C(c4ccccc4)c4ccccc4)CC3)cnc2n1` [Example 9, N-[4-(4-diphenylmethyl-1-piperazinyl)butyl]-4-mercapto-7-methyl-1,8-naphthyridine-3-carboxamide.cndot.fumarate.cndot.1/2 hydratet]: the inhibition at 10 µM against 5-lipoxygenase is 88.3%.

`Cc1ccc(C(=O)NCCCCN2CCN(C(c3ccccc3)c3ccccc3)CC2)c(O)n1` [Example 10, N-[4-(4-diphenylmethyl-1-piperazinyl)butyl]-2-hydroxy-6-methylpyridine-3-carboxamide]: in data set [1], the “PCA inhibition (%)” value turned out to be 84.8%.

`O=C(NCCCCN1CCN(C(c2ccccc2)c2ccccc2)CC1)c1cnc2ccccc2c1O` [Example 12] had an inhibition at 10 µM against 5-lipoxygenase of 83.7%.

For the molecule `Cc1ccc2ncc(C(=O)NCCCCN3CCN(C(c4ccccc4)c4ccccc4)CC3)c(O)c2c1` [Example 14], the inhibition at 10 µM against 5-lipoxygenase came to 93.7%.

With `Cc1ccc2c(O)c(C(=O)NCCCCN3CCN(C(c4ccccc4)c4ccccc4)CC3)cnc2c1` [Example 15], on 5-lipoxygenase, the inhibition at 10 µM came to 93%.

In turn, `Cc1cccc2c(O)c(C(=O)NCCCCN3CCN(C(c4ccccc4)c4ccccc4)CC3)cnc12` [Example 16] showed an inhibition at 10 µM on 5-lipoxygenase of 90.6%.

In turn, `CC(C)c1ccc2ncc(C(=O)NCCCCN3CCN(C(c4ccccc4)c4ccccc4)CC3)c(O)c2c1` [Example 17] yielded an inhibition at 10 µM against 5-lipoxygenase of 95.3%.

Regarding `COc1ccc2ncc(C(=O)NCCCCN3CCN(C(c4ccccc4)c4ccccc4)CC3)c(O)c2c1` [Example 18], at 5-lipoxygenase, the inhibition at 10 µM is 93.2%.

`COc1ccc2c(O)c(C(=O)NCCCCN3CCN(C(c4ccccc4)c4ccccc4)CC3)cnc2c1` [Example 19] showed an inhibition at 10 µM against 5-lipoxygenase of 92.8%.

Molecule `CCCCOc1cccc2c(O)c(C(=O)NCCCCN3CCN(C(c4ccccc4)c4ccccc4)CC3)cnc12` [Example 20] displayed an inhibition at 10 µM on 5-lipoxygenase of 94.8%.

Take `N#Cc1ccc2ncc(C(=O)NCCCCN3CCN(C(c4ccccc4)c4ccccc4)CC3)c(O)c2c1` [Example 21]: the inhibition at 10 µM against 5-lipoxygenase worked out at 67.9%.

On to `CN1CCC(=C2c3ccccc3CC(=O)c3sccc32)CC1` [Ketotifen fumarate, reference compound], for which, on 5-lipoxygenase (ketotifen fumarate at 10^-4 M), the “5-lipoxygenase inhibitory activity (in words)” value is on record as “did not show any significant inhibitory activity”. In addition, the “PCA inhibition (%)” value in data set [1] was 54.7%.
